In patent US5312831A, “Urethanes and ureas that induce cytokine production” (American Cyanamid Company, priority 1993, dated 1994):
Like-named read-outs stand apart in the source and are kept apart here.

Assays:
[1] = system: IL-6; experiment: Serum IL-6 in 5-FU treated monkeys; assay type: in vivo, cynomolgous monkeys
Description: Groups of 3 cynomolgous monkeys are treated with 5FU at 125 mg/kg and
beginning 24 hours later treated with test compound s.c. at 0.05 mg/kg.
The data reported are from sera taken 4 hours after test compound

[2] = system: bone marrow progenitor cells; experiment: Delta assay: expansion of bone marrow progenitor cells in vitro, with c-kit ligand (KL); assay type: cell-based, mouse; details: for fold induction at 0.5 µg/mL: Mus musculus, Bone marrow cell, 168 h, 7 day in vitro incubation, read-out: Fold Increase in CFU
Description: Delta Assay--Mice are treated with a single dose of 5-FU (150 mg/kg ip). Twenty-four hours later, bone marrow cells are removed and split into 2 aliquots. […] After 14 days, the number of colonies is determined (CFU-1). A second aliquot of cells is placed in liquid culture with single growth factors or drugs or combinations of each to assess the ability of these agents to expand the colony forming cell pool. After 7 days in liquid culture, these cells are harvested and plated in soft agar with IL-1 and GM-CSF as with the first aliquot. After 14 days the number of colonies in the second aliquot is determined (CFU-2). The ratio or delta is calculated as CFU-2/CFU-1 and this ratio is used to ascertain the ability of the growth factors and/or drugs used in the liquid phase to induce growth of the colony forming cells (CFU) or differentiation of pre-CFU to CFU.
Bone marrow cells from 5-FU treated mice are used to enrich for early progenitor cells. The cells are split into 2 aliquots as described in the methods section for the "delta assay." The fold increase is determined by measuring the effect of a 7 day in vitro incubation of the cells with tissue culture medium plus test compound and/or growth factor KL on colony forming dells (CFU). The number of CFUs are then compared with colony formation of the fresh bone marrow cells that were not incubated in vitro to determine the fold increase. Test compound is used in vitro at 0.5 μg/ml.

[3] = system: bone marrow CFU-GM; experiment: Bone marrow CFU-GM in 5-FU treated mice; assay type: in vivo, mouse
Description: Colony forming assays Granulocyte-Macrophage (CFU-GM)--Mice are treated with 150 mg/kg of 5-Fu and treatment with test compound begins 24 hrs. later. On consecutive days, mice are killed by cervical dislocation and the femurs removed under sterile conditions. Femurs are flushed with 1 ml of ice cold medium (Iscove's supplemented with 20% FCS, 1% penicillin-streptomycin, 1% glutamine and 5×10^-5 M 2-mercaptoethanol). Bone marrow cells (5×10^5) are then plated in 12×75 mm tissue culture plates in 3 ml of warm ararose (3%) in Iscove's medium with 100 Units/ml of recombinant mouse GM-CSF purchased from Genzyme (Boston, Mass.). Plates are incubated for 7 days at 37° C. in 5% CO2. After 7 days, colonies of 50 cells or greater are enumerated under a dissecting microscope. 5-Fluorouracil (5-FU) Induced Neutropenia In Mice--Mice are treated ip with 150 mg/kg of the chemotherapy agent 5-FU which induces a severe loss of neutrophils in the peripheral blood 5-6 days later. Twenty-four hrs. after the dose, treatment with the test compounds is initiated. The effect of the test compounds on recovery of neutrophil progenitor cells in the bone marrow is determined by the CFU-GM assay. […]

CCCCCCC(=O)N[C@@H](C(=O)O)[C@@H](C)OC(=O)N[C@@H](CCC[C@@H](N)C(=O)O)C(=O)N[C@H](C)C(=O)O [Example 28, [R-(R*,R*)]-N-(R)-6-carboxy-N^2-[[2-carboxy-1-methyl-2-[(1-oxoheptyl)amino]ethoxy]carbonyl]-L-lysyl]-D-Alanine]
Serum IL-6 ([1]; 0.05 mg/kg s.c., 5FU 125 mg/kg, sera 4 hours after treatment, 5-FU only 0): 2579 ± 318 Units/ml | IL-6 production in the serum of 5-FU treated primates (in words) ([1]; monkey, in vivo): induces IL-6 and GCSF production | fold induction at 0.5 µg/mL ([2]; KL + test compound (0.5 μg/ml)): 158 | fold induction at 0.5 µg/mL ([2]; test compound alone, 0.5 μg/ml, medium alone 0): 1.3 | synergy with c-kit ligand (KL) on growth of bone marrow progenitor cells (in words) ([2]; in vitro): acts synergistically | CFU-GM/femur ([3]; 0.1 mg/kg daily s.c., day 3 after 5FU 150 mg/kg, normal 30184 ± 3677, 5-FU only 805 ± 512): 6055 ± 534 CFU-GM/femur | CFU-GM in the bone marrow (in words) ([3]; 5-FU treated mice): increase of CFU-GM
